Experimental data: US8754222B2, “Process for preparing modulators of cystic fibrosis transmembrane conductance regulator” (Vertex Pharmaceuticals Incorporated, priority 2009, dated 2014)

Molecular target: T1, ΔF508-CFTR (Homo sapiens, UniProt P13569, DEL508-508)
T1 construct: expressed in transfected cells; host or cells: NIH3T3 mouse fibroblasts, stably expressing, temperature-corrected at 27 °C
Experiment: Membrane potential optical assay, identification of potentiator compounds
Format: cell-based
Conditions: assay not specified; ΔF508-CFTR potentiation, NIH 3T3 cells
Description: Membrane Potential Optical Methods for Assaying ΔF508-CFTR Modulation Properties of Compounds
The assay utilizes fluorescent voltage sensing dyes to measure changes in membrane potential using a fluorescent plate reader (e.g., FLIPR III, Molecular Devices, Inc.) as a readout for increase in functional ΔF508-CFTR in NIH 3T3 cells. The driving force for the response is the creation of a chloride ion gradient in conjunction with channel activation by a single liquid addition step after the cells have previously been treated with compounds and subsequently loaded with a voltage sensing dye.
Identification of Potentiator Compounds
To identify potentiators of ΔF508-CFTR, a double-addition HTS assay format was developed. This HTS assay utilizes fluorescent voltage sensing dyes to measure changes in membrane potential on the FLIPR III as a measurement for increase in gating (conductance) of ΔF508 CFTR in temperature-corrected ΔF508 CFTR NIH 3T3 cells. The driving force for the response is a ion gradient in conjunction with channel activation with forskolin in a single liquid addition step using a fluorescent plate reader such as FLIPR III after the cells have previously been treated with potentiator compounds (or DMSO vehicle control) and subsequently loaded with a redistribution dye.
Bath Solution #1: (in mM) NaCl 160, KCl 4.5, CaCl2 2, MgCl2 1, HEPES 10, pH 7.4 with NaOH. […]

T1 sequence (P13569 with tags, fused parts or gaps DEL508-508): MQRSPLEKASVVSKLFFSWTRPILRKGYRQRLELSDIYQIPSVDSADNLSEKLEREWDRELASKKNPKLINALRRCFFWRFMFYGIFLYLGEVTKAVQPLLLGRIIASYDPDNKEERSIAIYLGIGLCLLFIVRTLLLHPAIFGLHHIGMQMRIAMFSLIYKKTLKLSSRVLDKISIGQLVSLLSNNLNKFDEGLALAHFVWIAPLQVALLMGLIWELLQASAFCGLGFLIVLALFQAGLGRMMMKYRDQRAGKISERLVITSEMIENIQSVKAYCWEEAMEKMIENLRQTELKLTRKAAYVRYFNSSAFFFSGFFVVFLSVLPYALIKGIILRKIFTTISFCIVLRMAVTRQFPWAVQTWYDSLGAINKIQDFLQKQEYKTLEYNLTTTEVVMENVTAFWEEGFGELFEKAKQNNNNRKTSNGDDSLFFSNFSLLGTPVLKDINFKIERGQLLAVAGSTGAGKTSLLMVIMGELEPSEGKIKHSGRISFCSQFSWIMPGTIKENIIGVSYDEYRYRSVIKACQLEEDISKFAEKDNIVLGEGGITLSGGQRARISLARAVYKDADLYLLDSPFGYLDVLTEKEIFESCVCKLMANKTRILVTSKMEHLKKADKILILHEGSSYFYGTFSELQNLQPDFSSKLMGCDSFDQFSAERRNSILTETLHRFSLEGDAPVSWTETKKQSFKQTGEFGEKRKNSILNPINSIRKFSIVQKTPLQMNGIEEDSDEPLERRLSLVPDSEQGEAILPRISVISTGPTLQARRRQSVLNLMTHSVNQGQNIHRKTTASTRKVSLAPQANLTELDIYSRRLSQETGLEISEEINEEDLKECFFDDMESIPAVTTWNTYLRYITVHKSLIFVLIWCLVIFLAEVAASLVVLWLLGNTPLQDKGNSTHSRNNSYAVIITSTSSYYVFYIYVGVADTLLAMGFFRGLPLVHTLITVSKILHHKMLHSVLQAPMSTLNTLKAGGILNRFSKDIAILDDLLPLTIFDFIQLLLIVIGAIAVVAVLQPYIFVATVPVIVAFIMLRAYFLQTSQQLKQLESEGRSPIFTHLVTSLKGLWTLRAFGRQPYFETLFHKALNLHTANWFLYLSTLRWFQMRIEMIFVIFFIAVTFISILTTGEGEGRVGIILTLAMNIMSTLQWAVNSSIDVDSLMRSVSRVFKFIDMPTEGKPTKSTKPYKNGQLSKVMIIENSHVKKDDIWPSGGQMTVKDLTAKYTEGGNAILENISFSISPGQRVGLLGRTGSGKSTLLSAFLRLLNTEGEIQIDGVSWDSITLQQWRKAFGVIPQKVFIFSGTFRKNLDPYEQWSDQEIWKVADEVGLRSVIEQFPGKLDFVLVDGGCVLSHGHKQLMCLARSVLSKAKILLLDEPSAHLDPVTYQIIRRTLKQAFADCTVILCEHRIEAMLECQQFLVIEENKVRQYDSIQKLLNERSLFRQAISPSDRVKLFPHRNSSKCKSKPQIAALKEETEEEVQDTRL

## O=C(Nc1ccc(N2C3CCC2CC3)cc1C(F)(F)F)c1c[nH]c2cccc(C(F)(F)F)c2c1=O [Compound 1 Form A, N-(4-(7-azabicyclo[2.2.1]heptan-7-yl)-2-(trifluoromethyl)phenyl)-4-oxo-5-(trifluoromethyl)-1,4-dihydroquinoline-3-carboxamide]
  EC50: < 2000 nM
